For this experiment, the system named is adult-derived normal human fibroblasts. In words: Collagen production promoting test (human collagen type 1 ELISA of supernatant). The class given is cell-based. The note with it: final concentration 1 mg/mL; culture for 3 days; mean of 5 tests. The procedure: As the cells for test, adult-derived normal human fibroblasts bought from Kurabo Industries Ltd. were used.
As a cell growth medium, DMEM added with 10% FBS and […] mixed solution was used; and as a test medium, DMEM added with 1% FBS and 1% penicillin-streptomycin mixed solution was used.
Adult-derived normal human fibroblasts were sown and initiated in a cell growth medium inside a cell culture flask (Corning's T-75), and cultured in a moist environment at 37° C. in the presence of 5% CO2. During this, the medium was replaced every other day, and at the time when the culture reached 80% confluent growth, the cells were collected and used in the following tests.
The cultured fibroblasts were sown in a 96-well plate to be 5×10^3 cells/0.1 mL/well, and cultured therein at 37° C. in the presence of 5% CO2 for 1 day. Subsequently, the cell growth medium in each well was replaced with each test medium added with the composition 1 or L-ascorbic acid 2-glucoside, or with a test medium not added with them (control medium). […] Subsequently, the cells were cultured at 37° C. in the presence of 5% CO2 for 3 days, then the supernatant of the test medium in each well was collected, and using a human collagen-type 1 ELISA kit, the I-type collagen concentration in the supernatant was measured. […]
On the technique in general: In an ELISA, binding on a coated surface is turned into a signal by an enzyme label.

Turning to `O=C1O[C@H]([C@@H](O)CO)C(O)=C1O[C@H]1O[C@H](CO)[C@@H](O)[C@H](O)[C@H]1O` [L-ascorbic Acid 2-Glucoside, L-ascorbic acid 2-glucoside], the “Collagen Production Amount (I-type collagen concentration in supernatant)” value was 4.29 µg/mL.

(Values after patent US11179414B2, “Method for producing protease degradation composition” (LAIMU CORPORATION, priority 2018, dated 2021).)
